US20240390377A1, “COMPOSITION FOR THE PREVENTION OR TREATMENT OF NEURODEGENERATIVE OR MOTOR NEURON DISEASES COMPRISING HALOFUGINONE AS AN ACTIVE INGREDIENT” (CURAMYS CO., LTD., priority 2022, published 2024)

Assays:
[1] = test system: G93A mutant SOD1 transgenic mice; experiment: ALS animal model disease progression, survival and motor function (rotarod) analysis; type: in vivo, mouse
Description: Specifically, all animal experiments were conducted according to the guidelines of the Animal Care Committee of Seoul National University Animal Hospital (IACUC, approval number SNU-200220-1-2). Transgenic mice expressing the human G93A mutant SOD1 gene (B6SJL-Tg(SOD1-G93A) 1 Gur/J) as an ALS animal model were purchased from Jackson Laboratory (Bar Harbor, ME, USA). Male transgenic ALS mice expressing mtSOD1(G93A) H1 strain (Jackson Laboratories, Bar Harbor, ME, USA) were crossed with female mice (B6/SJLF1). The mice were housed under standard conditions with a constant temperature of 22±1° C., relative humidity of 40%, and a 12-hour light-dark cycle, with ad libitum access to food and water. Genotypes were confirmed by polymerase chain reaction (PCR) using primers shown in [Table 1] below, and the number of transgene copies was confirmed. Next, G93A mutant SOD1 transgenic mice were divided into three stages: 60 days old (asymptomatic), 90 days old (early symptom), and 120 days old (late symptom) depending on the time point. A total of 96 mice were used in the experiment. As a control group, non-transgenic mice were used.
(§1) As a control group, non-transgenic mice were injected intraperitoneally (i.p.) with vehicle (DMSO) in the same manner for the same period of time.
Specifically, the clinical condition and body weight of the mice in Example 6 were assessed three times a week starting from day 83 post-birth. Disease onset was defined as tremor of the limbs when the mouse's tail was suspended in the air, reported to be clinically associated with upper motor neuron system [S. Nagano, Y. Fujii, T. Yamamoto, M. Taniyama, K. Fukada, T. Yanagihara, et al. The efficacy of trientine or ascorbate alone compared to that of the combined treatment with these two agents in familial amyotrophic lateral sclerosis model mice Exp Neurol, 179 (2003), pp. 176-180]. The endpoint age was determined as the inability of the animal to right itself within 30 seconds after being placed on a flat surface on its side. At this point, the mouse was considered deceased [C. Zheng, I. Nennesmo, B. Fadeel, J. I. Henter Vascular endothelial growth factor prolongs survival in a transgenic mouse model of ALS Ann Neurol, 56 (2004), pp. 564-567]. The motor function of mice was assessed using a rotarod apparatus (JD-A-07M, JEUNG DO BIO & PLANT CO., LTD). Mice were trained for one week prior to recording. The mice were placed on a rotarod that started at a speed of 4 rpm and accelerated up to 40 rpm over 300 seconds, increasing by 1 rpm approximately every 8.3 seconds. The rotarod test was measured on average three times per measurement, three times per week from 83 days of age, until it was not possible to stay in rotarod for more than 10 seconds three consecutive times.
All data were expressed as the mean and the standard error of the mean (SEM) based on at least three independent experiments and as the ratio of control values. The significance of differences between groups was analyzed by Student's t-test or one-way ANOVA followed by Tukey's post host comparison. A p-value of <0.05 was considered statistically significant. The cumulative probability of symptom onset, rotarod failure, and disease endpoint was analyzed using a Kaplan Meier curve. All analyses were performed using GraphPad Prism. […]

[2] = test system: G93A mutant SOD1 transgenic mice; experiment: Immunohistochemical analysis of lumbar spinal cord in ALS animal model; type: in vivo, mouse
Description: as §1
Specifically, the mice of Example 6 above were perfused with 4% paraformaldehyde (PFA) on 90 and 120 days of age, and the lumbar spinal cord and knee joints were separated. After fixation in 4% PFA for 24 hours, the knee joints were rinsed in running tap water for 24 hours and then incubated at 4° C. with continuous shaking in decalcifying solution (Calci-Clear, HS-104, National Diagnostics). The decalcification solution was replaced daily with fresh solution until the bones were easily penetrated with a needle, indicating completion of the decalcification process. Subsequently, the decalcified knee joints were rinsed in running tap water for 24 hours, and the spinal cord and knee joint samples were treated with 30% sucrose until they sank, followed by freeze protection, followed by successive cuts (14 μm). The lumbar spinal cord and knee joint tissue sections were washed three times with PBS and permeabilized with 0.5% Triton X-100 for 5 minutes. Subsequently, they were blocked with 5% bovine serum albumin (BSA) in 0.3% PBS-T at room temperature for 1 hour. The knee joint tissue sections were incubated with anti-TGF-β1 antibody (1:200; Santa Cruz, cat #sc130348), anti-α-SMA antibody (1:200; Abcam, cat #ab7817), anti-MyoD antibody (1:200; Santa Cruz, cat #sc377460), and anti-Collagen I antibody (1:200; Abcam, cat #ab21286) each, while the lumbar spinal cord sections were incubated with anti-GFAP antibody (1:200; Dako, cat #Z0334), anti-Iba1 antibody (1:200; Wako, cat #016)-20001), anti-TGF-β1 antibody (1:200; Santa Cruz, cat #sc130348), anti-TGF-β1 antibody (1:200; Abcam, cat #ab92486), and anti-IL-1β antibody (1:200; R&D Systems, cat #AF-401-NA) at 4° C. for an additional 24 hours. After washing the sections three times with PBS, they were incubated with Alexa Fluor secondary antibodies in a dark chamber at room temperature for 1 hour. […] Furthermore, analysis was performed using Leica Application Suite X software (Leica Microsystems).
Specifically, halofuginone was administered to G93A mutant SOD1 mice in the same manner as described in <Example 6>, and immunohistochemical analysis was performed in the same manner as described in <Example 8> to identify TGF-β1 and glial cells in the lumbar spinal cord. Considering that TGF-β derived from astrocytes has been reported to accelerate disease in ALS mice, each group's spinal cord was co-stained with TGF-β and GFAP during immunohistochemical analysis. In addition, Iba1 staining was performed to confirm the activity of microglia (FIGS. 9a and 9b).
In addition, to investigate the effect of glial changes in TGF-β and CNS on inflammation, IL-1β, a representative pro-inflammatory cytokine, was simultaneously stained with GFAP during immunohistochemical analysis (FIG. 9c).
In addition, halofuginone was administered to G93A mutant SOD1 mice in the same manner as described in Example 6. After sacrificing the mice at 90 days of age, Iba1 staining was performed to confirm the activation of microglia (FIG. 10a), and motor neurons were observed and counted using the same method as described above (FIG. 10b).

[3] = 250 μg/kg i.p. three times a week from 10 weeks of age, Hal TG vs DMSO TG group (FIG. 6a)

Structure (SMILES): O=C(C[C@H]1NCCC[C@@H]1O)Cn1cnc2cc(Br)c(Cl)cc2c1=O (racemic) [halofuginone]
- body weight [1, 3]: no significant difference
- time in the rotarod [1, 3]: significantly longer
- onset of symptoms ([1]; 250 μg/kg i.p. three times a week, mean±SD, DMSO TG group 94.2±5.7): 113±3.6
- age of reaching rotarod failure ([1]; 250 μg/kg i.p. three times a week, mean±SD, DMSO TG group 116.5±3.1, p<0.001): 124.3±3.5
- endpoint age ([1]; 250 μg/kg i.p. three times a week, mean±SD, DMSO TG group 129.3±7.6): 141.8±9.8
- microglia activity (Iba1) in lumbar spinal cord, compared with changes at 120 days ([2]; 90-day-old mice (FIG. 10a)): similar
- microglia (Iba1) in lumbar spinal cord ([2]; 120-day-old mice (FIG. 9a)): continuously increased
- increase in TGF-β1 in lumbar spinal cord ([2]; 120-day-old mice (FIG. 9b)): significantly reduced
- increase in astrocyte activity (GFAP) in lumbar spinal cord ([2]; 120-day-old mice (FIG. 9b)): significantly reduced
- activated inflammation (IL-1β with GFAP activity) in lumbar spinal cord ([2]; 120-day-old mice (FIG. 9c)): suppressed
